Starred links: 1 amine or outer side, 2 acyl side, 3 side chain; linkers in the order of their positions; H or OH if unused. Positions of bridges follow the written chain, without caps; N, C: chain ends. Residues, ends and D or L forms follow the SMILES beside them. *: point of attachment. C18 diacid = O=C(O)CCCCCCCCCCCCCCCCC(=O)*; γGlu = O=C(O)[C@H](CCC(=O)[*:2])N[*:1]; AEEA = NCCOCCOCC(=O)O
Molecular target: T1, human natriuretic peptide receptor 2 (hNPR2) (Homo sapiens, UniProt P20594)
T1 construct: expressed in transfected cells; host or cells: HEK293 (ATCC CRL-1573), clone 35, co-transfected with pGloSensor-42F
T1 sequence (P20594 23-1047): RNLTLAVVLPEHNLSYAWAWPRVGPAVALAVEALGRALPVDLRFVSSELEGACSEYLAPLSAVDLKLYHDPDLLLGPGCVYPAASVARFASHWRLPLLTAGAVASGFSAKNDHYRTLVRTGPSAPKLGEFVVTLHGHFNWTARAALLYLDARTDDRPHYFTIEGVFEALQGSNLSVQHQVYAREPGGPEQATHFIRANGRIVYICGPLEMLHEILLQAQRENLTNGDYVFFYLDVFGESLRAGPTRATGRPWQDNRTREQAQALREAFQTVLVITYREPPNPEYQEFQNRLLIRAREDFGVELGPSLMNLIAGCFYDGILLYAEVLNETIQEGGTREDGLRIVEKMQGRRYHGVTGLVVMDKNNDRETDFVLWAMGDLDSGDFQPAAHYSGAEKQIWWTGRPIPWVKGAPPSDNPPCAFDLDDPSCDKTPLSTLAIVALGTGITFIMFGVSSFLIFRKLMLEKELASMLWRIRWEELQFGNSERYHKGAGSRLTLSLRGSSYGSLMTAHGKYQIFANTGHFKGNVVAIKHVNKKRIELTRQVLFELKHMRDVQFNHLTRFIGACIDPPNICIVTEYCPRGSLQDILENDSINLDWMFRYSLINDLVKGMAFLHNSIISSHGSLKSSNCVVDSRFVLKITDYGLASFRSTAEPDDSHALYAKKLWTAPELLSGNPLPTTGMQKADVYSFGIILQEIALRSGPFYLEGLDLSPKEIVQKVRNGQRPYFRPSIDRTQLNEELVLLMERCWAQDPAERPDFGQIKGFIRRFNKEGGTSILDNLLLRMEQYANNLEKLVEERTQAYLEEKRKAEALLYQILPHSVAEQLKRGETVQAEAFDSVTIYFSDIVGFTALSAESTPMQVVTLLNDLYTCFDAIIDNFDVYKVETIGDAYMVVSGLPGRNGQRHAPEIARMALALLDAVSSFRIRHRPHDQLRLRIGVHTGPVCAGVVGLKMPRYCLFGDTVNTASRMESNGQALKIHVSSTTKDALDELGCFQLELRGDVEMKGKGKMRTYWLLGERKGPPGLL
Assay: In vitro hNPR2 activity assay (cGMP GloSensor reporter, HEK293)
Assay type: cell-based
Settings: for EC50: 0% HSA, HEK293-hNPR2/GloSensor cells; for hNPR2 0% HSA. [EC50% rel CNP]: potency relative to CNP22 (0065)
Method: To evaluate the in vitro activity of CNP22 (0065; Chem. 1) and CNP compounds of the invention, they were tested for their ability to induce production of cyclic guanosine monophosphate (cGMP) in reporter cells expressing the human natriuretic peptide receptor 2 (hNPR2).
Cell culture: To produce the reporter cell line, HEK293 (ATCC® CRL-1573™) cells were stably transfected with the pGloSensor-42F reporter plasmid (GloSensor cGMP reporter—luciferase, Promega) and an expression plasmid encoding the hNPR2 receptor. A single cell clone was isolated for the reporter cell line. When reporter cells are exposed to an hNPR2 activating compound, hNPR2 cause production of cGMP. […] Active GloSensor luciferase is able to convert luciferin to oxyluciferin, a process that produces bioluminescence. Upon cell lysis and supply of luciferase substrate, luciferase activity can be quantified by detection of luminescence. Therefore, addition of an hNPR2 activating compound and subsequent addition of detection reagent to reporter cells causes generation of luminescence in a dose dependent manner. […] This measure, also referred to as in vitro potency, is reported for all compounds tested. In all the in vitro activity experiments, CNP22 was used as a positive in-plate control for hNPR2 activation. To reduce inter-assay variation, we also report the potency of each compound relative to the potency of the CNP22 control on each plate.
Procedure: HEK293-hNPR2/GloSensor clone 35 cells were continuously cultured in selection medium (DMEM containing 10% FCS, 1% P/S, 200 μg/mL G418 and 100 μg/mL hygromycin). To perform the assay, cells were detached with TrypLE Express (Gibco #12604013), put through a 70 μm cell strainer, counted and seeded in 30 μL/well assay medium (DMEM without phenol red and with 1% P/S) at 10,000 cells/well in white 384-well plates (Perkin Elmer #6007680) overnight. The following day, test compounds were serial diluted in dilution medium (DMEM without phenol red containing 1% OVA (Sigma #A5505 lot 04M7001V), 0.01% Tween20 (Roche #33766700) and 1% P/S) and 10 μL/well of diluted test compounds were subsequently added to the cells. For each compound, ten different concentrations in the range 0.25 μM-10 μM were tested. After 30 min of incubation at 37° C. and 5% CO2, 40 μL/well Bright-Glo detection reagent (Promega #E2650) was added. […] To determine the in vitro potency or EC50 of each test compound, a four parameter logistic regression was done on the raw data for each test compound using the Python package SciPy optimize. The average EC50 values are listed as “hNPR2 0% HSA. [EC50 (nM)]” in Table 2. A relative potency was calculated by the following expression: EC50 (CNP22 in-plate control)/EC50 (test compound)*100, shown as “hNPR2 0% HSA. [EC50% rel CNP]” in Table 2. A minimum of two replicates was measured for each test compound.

SMILES	EC50 [nM]	hNPR2 0% HSA. [EC50% rel CNP] [%]
CC[C@H](C)[C@@H]1NC(=O)[C@H](CCCNC(=N)N)NC(=O)[C@H](CC(=O)O)NC(=O)[C@H](CC(C)C)NC(=O)[C@H](CCCCN)NC(=O)[C@H](CC(C)C)NC(=O)CNC(=O)[C@H](Cc2ccccc2)NC(=O)[C@@H](NC(=O)CNC(=O)[C@H](CCCCN)NC(=O)[C@H](CO)NC(=O)[C@H](CC(C)C)NC(=O)CNC(=O)[C@H](CCCCN)NC(=O)[C@H](CCC(=O)O)NC(=O)[C@H](CCC(N)=O)NC(=O)[C@H](C)NC(=O)CNC(=O)[C@H](CCC(N)=O)NC(=O)[C@H](CCC(=O)O)NC(=O)COCCOCCNC(=O)COCCOCCNC(=O)CC[C@H](NC(=O)CCCCCCCCCCCCCCCCC(=O)O)C(=O)O)CSSC[C@@H](C(=O)O)NC(=O)CNC(=O)[C@H](CC(C)C)NC(=O)CNC(=O)[C@H](CO)NC(=O)[C@H](CC(C)C)NC(=O)[C@H](CO)NC(=O)CNC1=O [compound 1231] ({C18 diacid-γGlu-AEEA-AEEA}-EQGAQEKGLSKGCFGLKLDRIGSLSGLGC-OH; disulfide 13-29)	5.62	4.1
CC[C@H](C)[C@@H]1NC(=O)[C@H](CCCNC(=N)N)NC(=O)[C@H](CC(=O)O)NC(=O)[C@H](CC(C)C)NC(=O)[C@H](CCCCN)NC(=O)[C@H](CC(C)C)NC(=O)CNC(=O)[C@H](Cc2ccccc2)NC(=O)[C@@H](NC(=O)CNC(=O)[C@H](CCCCN)NC(=O)[C@H](CO)NC(=O)[C@H](CC(C)C)NC(=O)CNC(=O)[C@H](CCCCN)NC(=O)[C@H](CCC(=O)O)NC(=O)[C@H](CCC(N)=O)NC(=O)[C@H](C)NC(=O)CNC(=O)[C@H](Cc2c[nH]cn2)NC(=O)[C@H](CCC(=O)O)NC(=O)COCCOCCNC(=O)COCCOCCNC(=O)CC[C@H](NC(=O)CCCCCCCCCCCCCCCCC(=O)O)C(=O)O)CSSC[C@@H](C(=O)O)NC(=O)CNC(=O)[C@H](CC(C)C)NC(=O)CNC(=O)[C@H](CO)NC(=O)[C@H](CC(C)C)NC(=O)[C@H](CO)NC(=O)CNC1=O [compound 1236] ({C18 diacid-γGlu-AEEA-AEEA}-EHGAQEKGLSKGCFGLKLDRIGSLSGLGC-OH; disulfide 13-29; C-terminus assumed)	3.4	6.1
CC[C@H](C)[C@@H]1NC(=O)[C@H](CCCNC(=N)N)NC(=O)[C@H](CC(=O)O)NC(=O)[C@H](CC(C)C)NC(=O)[C@@H]2CCCN2C(=O)[C@H](CC(C)C)NC(=O)CNC(=O)[C@H](Cc2ccccc2)NC(=O)[C@@H](NC(=O)CNC(=O)[C@H](CCCCN)NC(=O)[C@H](CO)NC(=O)[C@H](CC(C)C)NC(=O)CNC(=O)[C@H](CCCCN)NC(=O)[C@H](CCC(=O)O)NC(=O)[C@H](CCC(N)=O)NC(=O)[C@H](C)NC(=O)CNC(=O)[C@H](Cc2c[nH]cn2)NC(=O)[C@H](Cc2ccc(O)cc2)NC(=O)COCCOCCNC(=O)COCCOCCNC(=O)CC[C@H](NC(=O)CCCCCCCCCCCCCCCCC(=O)O)C(=O)O)CSSC[C@@H](C(=O)O)NC(=O)CNC(=O)[C@H](CC(C)C)NC(=O)CNC(=O)[C@H](CO)NC(=O)[C@H](CC(C)C)NC(=O)[C@H](CO)NC(=O)CNC1=O [compound 1240] ({C18 diacid-γGlu-AEEA-AEEA}-YHGAQEKGLSKGCFGLPLDRIGSLSGLGC-OH; disulfide 13-29; C-terminus assumed)	–	11.2
CC[C@H](C)[C@@H]1NC(=O)[C@H](CCCNC(=N)N)NC(=O)[C@H](CC(=O)O)NC(=O)[C@H](CC(C)C)NC(=O)[C@@H]2CCCN2C(=O)[C@H](CC(C)C)NC(=O)CNC(=O)[C@H](Cc2ccccc2)NC(=O)[C@@H](NC(=O)CNC(=O)[C@H](CO)NC(=O)[C@H](CO)NC(=O)[C@H](CC(C)C)NC(=O)CNC(=O)[C@H](CCCCN)NC(=O)[C@H](CCC(=O)O)NC(=O)[C@H](CCC(N)=O)NC(=O)[C@H](C)NC(=O)CNC(=O)[C@H](Cc2c[nH]cn2)NC(=O)[C@H](Cc2ccc(O)cc2)NC(=O)COCCOCCNC(=O)COCCOCCNC(=O)CC[C@H](NC(=O)CCCCCCCCCCCCCCCCC(=O)O)C(=O)O)CSSC[C@@H](C(=O)O)NC(=O)CNC(=O)[C@H](CC(C)C)NC(=O)CNC(=O)[C@H](CO)NC(=O)[C@H](CC(C)C)NC(=O)[C@H](CO)NC(=O)CNC1=O [compound 1242] ({C18 diacid-γGlu-AEEA-AEEA}-YHGAQEKGLSSGCFGLPLDRIGSLSGLGC-OH; disulfide 13-29)	–	5.4

Other lines, results leading:

EC50 [nM]	hNPR2 0% HSA. [EC50% rel CNP] [%]	SMILES
1.63	16.0	CC[C@H](C)[C@@H]1NC(=O)[C@H](CCCNC(=N)N)NC(=O)[C@H](CC(=O)O)NC(=O)[C@H](CC(C)C)NC(=O)[C@H](CCCCN)NC(=O)[C@H](CC(C)C)NC(=O)CNC(=O)[C@H](Cc2ccccc2)NC(=O)[C@@H](NC(=O)CNC(=O)[C@H](CCCCN)NC(=O)[C@H](CO)NC(=O)[C@H](CC(C)C)NC(=O)CNC(=O)[C@H](CCCCN)NC(=O)[C@H](CCC(=O)O)NC(=O)[C@H](CCC(N)=O)NC(=O)[C@H](C)NC(=O)CNC(=O)[C@H](CCCCN)NC(=O)[C@H](Cc2ccc(O)cc2)NC(=O)COCCOCCNC(=O)COCCOCCNC(=O)CC[C@H](NC(=O)CCCCCCCCCCCCCCCCC(=O)O)C(=O)O)CSSC[C@@H](C(=O)O)NC(=O)CNC(=O)[C@H](CC(C)C)NC(=O)CNC(=O)[C@H](CO)NC(=O)[C@H](CC(C)C)NC(=O)[C@H](CO)NC(=O)CNC1=O [compound 1232] ({C18 diacid-γGlu-AEEA-AEEA}-YKGAQEKGLSKGCFGLKLDRIGSLSGLGC-OH; disulfide 13-29; C-terminus assumed)
1.95	11.8	CC[C@H](C)[C@@H]1NC(=O)[C@H](CCCNC(=N)N)NC(=O)[C@H](CC(=O)O)NC(=O)[C@H](CC(C)C)NC(=O)[C@H](CCCCN)NC(=O)[C@H](CC(C)C)NC(=O)CNC(=O)[C@H](Cc2ccccc2)NC(=O)[C@@H](NC(=O)CNC(=O)[C@H](CCCCN)NC(=O)[C@H](CO)NC(=O)[C@H](CC(C)C)NC(=O)CNC(=O)[C@H](CCCCN)NC(=O)[C@H](CCC(=O)O)NC(=O)[C@H](CCC(N)=O)NC(=O)[C@H](C)NC(=O)CNC(=O)[C@H](Cc2c[nH]cn2)NC(=O)[C@H](Cc2ccc(O)cc2)NC(=O)COCCOCCNC(=O)COCCOCCNC(=O)CC[C@H](NC(=O)CCCCCCCCCCCCCCCCC(=O)O)C(=O)O)CSSC[C@@H](C(=O)O)NC(=O)CNC(=O)[C@H](CC(C)C)NC(=O)CNC(=O)[C@H](CO)NC(=O)[C@H](CC(C)C)NC(=O)[C@H](CO)NC(=O)CNC1=O [compound 1237] ({C18 diacid-γGlu-AEEA-AEEA}-YHGAQEKGLSKGCFGLKLDRIGSLSGLGC-OH; disulfide 13-29)

Reference: patent publication US20240209028A1, “CNP COMPOUNDS” (priority 2022, published 2024)
